Data from publication PMC12525431, “Hsp70 Peptides Induce TREM-1-Dependent and TREM-1-Independent Activation of Cytotoxic Lymphocytes” (International Journal of Molecular Sciences, 2025).
Entries after “also recorded” stand apart in the source; their conditions may differ. Where two headings read alike, the source gives them in different places. Ends that are not written are not given here.

Columns and labels:
[1] = biological target: T1, TREM-1 (Homo sapiens, UniProt Q9NP99); assay: Microscale thermophoresis, binding to TREM-1; conditions: sTREM-1 labeled with Alexa Fluor 488, 30 min in the dark at room temperature, 16 concentrations by sequential dilution, Monolith NT 115, 8% IR laser power, at least three replicates
T1 construct: causes dissociation of the TREM-1 exocellular domain; made in house
Procedure: The purified sTREM-1 protein was labeled using an Alexa FluorTM 488 Protein Labeling Kit (Life Technologies Corporation, Eugene, OR, USA) in accordance with the manufacturer’s protocol.
The N7 peptide and TKD (C = 200 nM for all) were incubated for 30 min in the dark at room temperature in 16 different concentrations obtained through sequential dilution, starting with the highest soluble concentration. The samples were transferred to glass capillaries (Monolith NT Capillaries, NanoTemper Technologies GmbH, München, Germany) and then analyzed using a Nano-Temperature Monolith NT 115 device (8% IR laser power). The signal quality was monitored using a NanoTemper Monolith device to detect possible autofluorescence of the ligand, aggregation, or changes in the photobleaching rate. The experiments were carried out in at least three replicates and processed using affinity analysis software (MO Control v.1.6.1, NanoTemper Technologies GmbH, München, Germany).

[2] = tested on: K562 cells; assay: Cytotoxicity of activated PBMC/lymphocytes against K562 cells (Cytotox 96); type: cell-based, human
Procedure: (§1) Human leukemic cell line K562 and THP-1 cell line were cultured in RPMI-1640 (Himedia Laboratories Private Limited, Maharashtra, India) and 10% FCS (Cytiva Livescience™, Marlborough, MA, USA). This cell line was obtained from the cell line collection of N. N. Blokhin National Medical Research Center of Oncology of the Ministry of Health of Russia. […] The cells were sorted using sets of magnetic beads for isolation of CD14+, CD16+, CD56+, CD8+, and CD4+ according to the manufacturer’s protocol (all were produced by Thermo Fisher Scientific, Waltham, MA, USA).
(§2) For cytotoxicity tests, cells of the K562 line were cultured in 96-well plates (Guangzhou Jet Bio-Filtration Co., Guangzhou, China) (6 × 10^4 per well) mixed with lymphocytes added at a 20:1 ratio and incubated at 37 °C in a 5% CO2 atmosphere for 3 to 24 h). In the inhibition assays, cells were pre-incubated for 1 h with the LP17 ([…]) (Thermo Fisher Scientific, Boston, MA, USA), abTREM1 (ABclonal, Woburn, MA, USA), anti-NKG2D, anti-granzyme B, caspase 3 inhibitor Ac-IEID-CHO, RIP1 kinase inhibitor necrostatin1, TLR4 inhibitor, anti-MicA, anti-FasL, anti-CD94 antibody (concentration was 20 μg/mL for all inhibitors and all from Thermo Fisher Scientific, Waltham, MA, USA) and then the lymphocytes were added.
(§3) Cytotoxicity was measured using a Cytotox 96 analysis kit (Promega, Madison, WI, USA) after 24 h of incubation in accordance with the manufacturer’s protocol.

[3] = tested on: CD94 receptor; assay: Interaction with CD94 receptor (judged from PBMC cytotoxicity); type: cell-based, human; conditions: concluded from cytotoxicity experiments
Procedure: as §1
For cytotoxicity tests, cells of the K562 line were cultured in 96-well plates (Guangzhou Jet Bio-Filtration Co., Guangzhou, China) (6 × 10^4 per well) mixed with lymphocytes added at a 20:1 ratio and incubated at 37 °C in a 5% CO2 atmosphere for 3 to 24 h). […]
as §3

[4] = biological target: T1, TREM-1; assay: Interaction with / dependence on TREM-1 (judged from cytotoxicity blocking and binding experiments); type: cell-based; conditions: for effect on interaction of TREM-1 with its ligands: ligands N7 peptide, HMGB1, full-length Hsp70, judged from PBMC cytotoxicity
Procedure: as §1, §2, §3

[5] = tested on: HLA-negative tumor cells; conditions: cited from earlier work
[6] = biological target: T1, TREM-1; conditions: cited from earlier work
[7] = tested on: ICR mice; assay: LPS-induced sepsis in mice, survival; type: in vivo; conditions: N7.1 120 µg per mouse i.v. 1 h after LPS
Procedure: Female ICR mice weighing 25 ± 1.1 g (7-week-old) were obtained from the Animal Breeding Facility of IBCh RAS (Bioresource Collection supported by the Ministry of Science and Higher Education of the Russian Federation, contract No. 075-15-2025-486). During the experiment, all mice were maintained in a specific pathogen-free (SPF) state under a strict light cycle (lights on at 07:00 h and off at 19:00 h), at 22 ± 2 °C and 50 ± 10% relative humidity. Animals were provided ad libitum access to a standard laboratory autoclavable rodent diet.
Twenty-one mice were used for the present study. The animals were randomly assigned to three groups with seven animals in each group: (1) control, intact animals; (2) intravenous injection of physiological saline (100 μL 0.9% NaCl) as a placebo during LPS-induced sepsis; (3) intravenous injection of peptide N7.1 (120 µg in 100 µL saline per mouse) during LPS-induced sepsis. LPS-induced sepsis was stimulated by an intraperitoneal injection of 0.6 mg lipopolysaccharides from Salmonella enterica Serotype Typhimurium (Sigma-Aldrich Co., St. Louis, MO, USA). Due to the small fluctuation in animal weight, weight-based dosing of LPS was not used. Drug treatment (saline or peptide N7.1) was carried out 1 h after LPS-induced sepsis.

[8] = 4th day of PBMC incubation with N7, magnetic separation, K562, n = 5
[9] = 6th day of PBMC incubation with N7, magnetic separation, K562, n = 5

T1 sequence (Q9NP99 21-205 limits assumed): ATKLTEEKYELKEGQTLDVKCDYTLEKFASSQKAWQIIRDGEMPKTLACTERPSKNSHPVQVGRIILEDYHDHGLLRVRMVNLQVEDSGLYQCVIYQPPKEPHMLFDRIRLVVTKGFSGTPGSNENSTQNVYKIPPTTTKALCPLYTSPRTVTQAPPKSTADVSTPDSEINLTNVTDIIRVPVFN

Compound `CC(C)C[C@H](NC(=O)[C@H](CC(C)C)NC(=O)[C@H](CC(N)=O)NC(=O)[C@H](CC(N)=O)NC(=O)[C@H](CC(=O)O)NC(=O)[C@H](CCCCN)NC(=O)[C@@H](N)[C@@H](C)O)C(=O)NCC(=O)N[C@@H](CCCNC(=N)N)C(=O)N[C@@H](Cc1ccccc1)C(=O)N[C@@H](CCC(=O)O)C(=O)N[C@@H](CC(C)C)C(=O)N[C@@H](CO)C(=O)NCC(=O)O` [TKD] has a Kd [1] of 3 µM.
With `CN1C(=O)C(Cc2c[nH]c3ccccc23)NC1=S` (centres unmarked) [inhibitor of RIP1 kinase, necrostatin1, reference compound] the “effect of inhibitor on cytotoxic signal” value ([2]; CD8+ and CD4+ T lymphocytes activated by N7, 6 days, inhibitor pre-incubated 1 h (20 μg/mL), K562 3 or 24 h, n = 5) was “prevent the induction of cytotoxic signal”.
In the case of “AMTKDNNLLGR [N9, 11-membered peptide from fraction No. 9; can be considered as a shortened TKD peptide]”, the “interaction with CD94 receptor” value [3] is reported as “interact with the CD94 receptor”, the lymphocyte populations activated ([2]; human PBMC ex vivo with peptide, K562 target cells) is reported as “activates CD94+ NK cells” and the “interaction with TREM-1” value ([4]; concluded from LP17 blocking and binding experiments) is reported as “does not interact with the TREM-1 receptor”.
In the case of “Ac-IEID-aldehyde [caspase 3 inhibitor, reference compound]”, the “effect of inhibitor on activity of NK cells” value ([2]; NK cells activated by N7, inhibitor pre-incubated 1 h (20 μg/mL), K562, n = 5) is reported as “blocked”.
In the case of “Hsp70: recombinant human Hsp70, expressed in Escherichia coli M15”, the “activation of cytotoxic lymphocytes” value [5] is given as “activates TREM-1-dependent and TREM-1-independent cytotoxic lymphocytes that kill HLA-negative tumor cells” and the TREM-1 ligand ([6]; ref [19]) is given as “ligand of the TREM-1 innate immunity receptor”.
For “LQVTDSGLYRCVIYHPP [LP17, reference compound]”, the TREM-1 signaling inhibition ([6]; ref [24]) is listed as “TREM-1 signaling inhibitor”.
In the case of “PGLYRP1: innate immunity protein PGLYRP1, TREM-1 ligand”, the TREM-1 ligand ([6]; ref [30],[31],[32],[33]) is listed as “TREM-1 ligands”.
With “SDNQPGVL [N7.1, N-terminal fragment of N7 peptide]” the “effect on lymphocyte activation by TREM-1 ligands” value ([2]; PBMC pre-incubated with shortened peptide, then N7 peptide, HMGB1 or Hsp70 for 6 days, K562 24 h) was “blocks the activation of lymphocytes by all the ligands studied”, the “effect on interaction of TREM-1 with its ligands” value [4] was “inhibits the interaction of TREM-1 with its ligands; also recorded: prevent interaction of the TREM-1 receptor with its ligands in vitro” and the “effect on interaction of TREM-1 with its ligands” value ([4]; listed as SDNQPGVL) was “competes with other ligands”. For the same compound, the “effect in development of sepsis” value ([7]; LPS-induced sepsis in mice) was “protective effects in the development of sepsis in mice” and the “surviving animals (survival rate)” value ([7]; female ICR mice, n = 7, 0.6 mg S. enterica LPS i.p., observed to 120 h, saline 29%) was 86%.
For SDNQPGVLIQVYEGEK [N7], the “cytotoxic activity of CD4+ T lymphocytes” value [2, 8] was “activated”, the “cytotoxic activity of CD8+ T lymphocytes” value [2, 8] was “No traces of cytotoxic activity” and the “cytotoxic activity of NK cells” value [2, 8] was “reached their maximum activity”. The “cytotoxic activity of CD4+ T lymphocytes” value [2, 9] was “remained”, the “cytotoxic activity of CD8+ T lymphocytes” value [2, 9] was “appeared” and the “cytotoxic activity of NK cells” value [2, 9] was “completely disappeared”. The “induction of cytotoxic lymphocytes” value ([2]; PBMC 6 days with synthetic peptide (10^−9 M), MHC-negative K562 cells 24 h, n = 5) was “cytotoxic lymphocytes appear in the population, killing MHC-negative K562 tumor cells”.
For actin, the TREM-1 ligand ([6]; ref [30],[31],[32],[33]) is given as “TREM-1 ligands”.
